This is an account of results in US20060247227A1, “Substituted piperidines as histamine h3 receptor ligands” (priority 2003, published 2006).

The structures appear in SMILES notation. pKi: −log10 of the molar value. Structures can show the parent of a compound that is named as a salt.

Test system in one series: not given
Experiment: not given
Details: not given
With `CNC(=O)c1ccc(N2CCC(OC3CCN(C4CCC4)CC3)CC2)cn1` [Example E38A, 5-{4-[(1-Cyclobutyl-4-piperidinyl)oxy]-1-piperidinyl}-N-methyl-2-pyridinecarboxamide], the melting point (usually the temperature of the solid-liquid transition) came out at 109.7 °C.

For a further series, the target named is T1, histamine H3 receptor (Homo sapiens, UniProt Q9Y5N1).
T1 construct: expressed in transfected cells; host or cells: CHO K1 cells carrying pSwitch, transfected with pGeneH3 and induced with mifepristone; clone 3H3; membranes
T1 sequence (Q9Y5N1 whole entry): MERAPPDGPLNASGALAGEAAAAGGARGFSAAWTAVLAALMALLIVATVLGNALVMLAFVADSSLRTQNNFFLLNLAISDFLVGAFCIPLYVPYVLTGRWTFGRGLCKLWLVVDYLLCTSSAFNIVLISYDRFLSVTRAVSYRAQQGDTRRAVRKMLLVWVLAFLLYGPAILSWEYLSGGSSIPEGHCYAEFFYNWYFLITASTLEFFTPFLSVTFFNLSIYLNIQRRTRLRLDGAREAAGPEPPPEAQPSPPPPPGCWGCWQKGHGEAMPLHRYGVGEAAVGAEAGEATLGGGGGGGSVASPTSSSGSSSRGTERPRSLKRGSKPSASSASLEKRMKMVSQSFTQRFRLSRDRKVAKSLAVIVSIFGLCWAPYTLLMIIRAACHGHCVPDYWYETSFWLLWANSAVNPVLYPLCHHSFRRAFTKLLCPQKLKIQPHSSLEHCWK
The series can be described thus: Histamine H3 functional antagonist assay ([35S]GTPγS, SPA, membranes of CHO K1 cells expressing the receptor). To be noted: histamine-stimulated GTPγS binding, membranes with human H3. The series is classed as biochemical. A general note: Binding of GTPγS marks nucleotide exchange on a G protein.
`CC[C@H](C)N1CCC(OC2CCN(c3ccc(C(C)=O)cc3)CC2)CC1` [Example E101]: the pKi (in general, −log10 of the Ki, conventionally taken in molar units) is at least 9.00. `CC[C@@H](C)N1CCC(OC2CCN(c3ccc(C(C)=O)cc3)CC2)CC1` [Example E102] showed a negative logarithm of the Ki (pKi) of at least 9.00. `CC(=O)c1ccc(N2CCC(OC3CCN(CC4CC4)CC3)CC2)cc1` [Example E103, 1-[4-(4-{[1-(Cyclopropylmethyl)-4-piperidinyl]oxy}-1-piperidinyl)phenyl]ethanone] gave a pKi of over 8.00.

In turn, `O=C(NC1CCC1)c1ccc(N2CCC(OC3CCN(C4CCC4)CC3)CC2)cn1` [Example E104, N-Cyclobutyl-5-{4-[(1-cyclobutyl-4-piperidinyl)oxy]-1-piperidinyl}-2-pyridinecarboxamide] showed a pKi of at least 9.00. The molecule `CC(C)N1CCC(OC2CCN(c3ccc(C(=O)NC4CCC4)nc3)CC2)CC1` [Example E105, N-Cyclobutyl-5-(4-{[1-(1-methylethyl)-4-piperidinyl]oxy}-1-piperidinyl)-2-pyridinecarboxamide] had a pKi of at least 9.00. `CC(C)N1CCC(OC2CCN(c3ccc(C(=O)NCCCCl)cc3)CC2)CC1` [Example E106, N-(3-Chloropropyl)-4-(4-{[1-(1-methylethyl)-4-piperidinyl]oxy}-1-piperidinyl)benzamide hydrochloride] gave a pKi of at least 9.00.

`O=C(NCCCCl)c1ccc(N2CCC(OC3CCN(C4CCC4)CC3)CC2)cn1` [Example E107, N-(3-Chloropropyl)-5-{4-[(1-cyclobutyl-4-piperidinyl)oxy]-1-piperidinyl}-2-pyridinecarboxamide hydrochloride] gave a negative logarithm of the Ki (pKi) of at least 9.00. Turning to `CC(C)N1CCC(OC2CCN(c3ccc(C(=O)NCCCCl)nc3)CC2)CC1` [Example E108, N (3-Chloropropyl)-5-(4-{[1-(1-methylethyl)-4-piperidinyl]oxy}-1-piperidinyl)-2-pyridinecarboxamide hydrochloride], the pKi is at least 9.00. The same measure, in the same setting: under `CC(=O)c1ccc(N2CCC(OC3CCN(C4CCC4)CC3)CC2)c(F)c1` [Example E109, 1-(4-{4-[(1-Cyclobutyl-4-piperidinyl)oxy]-1-piperidinyl}-3-fluorophenyl)ethanone] stands at least 9.00; under `Cc1noc(-c2ccc(N3CCC(OC4CCN(C5CCC5)CC4)CC3)cc2F)n1` [Example E110, 1-Cyclobutyl-4-({1-[3-fluoro-4-(3-methyl-1,2,4-oxadiazol-5-yl)phenyl]-4-piperidinyl}oxy)piperidine], at least 9.00. `CC(=O)c1ccc(N2CCC(OC3CCN(C4CCC4)CC3)CC2)cn1` [Example E111, 1-(5-{4-[(1-Cyclobutyl-4-piperidinyl)oxy]-1-piperidinyl}-2-pyridinyl)ethanone] showed a negative logarithm of the Ki (pKi) of at least 9.00. On the same count and under the same terms, to `Cc1noc(-c2ccc(N3CCC(OC4CCN(C(C)C)CC4)CC3)c(F)c2)n1` [Example E112, 1-[2-Fluoro-4-(3-methyl-1,2,4-oxadiazol-5-yl)phenyl]-4-{[1-(1-methylethyl)-4-piperidinyl]oxy}piperidine hydrochloride] belongs at least 9.00; to `Cc1noc(-c2ccc(N3CCC(OC4CCN(C(C)C)CC4)CC3)cc2F)n1` [Example E113, 1-[3-Fluoro-4-(3-methyl-1,2,4-oxadiazol-5-yl)phenyl]-4-{[1-(1-methylethyl)-4-piperidinyl]oxy}piperidine hydrochloride], at least 9.00.
